Test results published in patent publication US7067633B2, “Targeting cellular entry, cell survival, and pathogenicity by dynein light chain 1/PIN in human cells” (Board of Regents, The University of Texas System, priority 2003, dated 2006).

How the values were obtained:
Type in all cases: cell-based, human
[1] = tested on: DLC1-ER interaction; assay: Coimmunoprecipitation of DLC1 with ER
Procedure: In vitro-translated ^35ER were incubated with GST-DLC1, and analyzed by SDS-PAGE and autoradiography. FIG. 13B: Identification of ER domains that interact with DLC1. GST-ER fusion proteins containing different deletion constructs were incubated with in vitro-translated 35S-DLC1 (aa 1-89), and binding was analyzed by GST pull-down assay. FIG. 13C: Mapping of the ER-binding region in DLC1. GST-fusions of various DLC1 deletion constructs were incubated with in vitro-translated ^35S-ER, and binding was analyzed by GST pull-down assay. […] Cell lysates from Ishikawa cells was immunoprecipitated (IP) with anti-ERá mAb and immunoblotted with anti-DLC1 or ER Abs. […] Cell lysates from MCF-7/TAM-sen or Ishikawa cells were treated with Tam (10^−9M) for 24 h, and IP with anti-ERá mAb and immunoblotted with anti-DLC1 or ER Abs. […] MCF-7/DLC1 cells were treated with or without Dox for 24 h and then treated with E2 (10^−9M) or Tam (10^−8M) for 24 h, and IP with anti-ERá mAb and immunoblotted with anti-DLC1 or ER Abs. FIG. 13G: Characterization of MCF-7 cells expressing T7-DLC1-Ser88A mutant under a tetracycline-inducible promoter. […] MCF-7/DLC1 and MCF-7/DLC1-Ser88A cells were treated with or without Dox for 24 h and cell lysates were IP with anti-ERá mAb and blotted with anti-DLC1, ERá and T7 Abs.
To this end, MCF-7 cells expressing a T7-DLC1 mutant in which Ser88 and amino acid 89 were deleted under a tet-inducible promoter (MCF-7/DLC1-1-87 mutant) were generated (FIG. 13G).

[2] = tested on: pS2 gene chromatin; assay: Chromatin immunoprecipitation (ChIP), pS2 promoter; conditions: DLC1 overexpression in MCF-7/DLC1 cells
Source text: FIG. 14A: Characterization of MCF-7 cells expressing T7-DLC1 under a tet-inducible promoter. Time and dose dependent upregulation of Dox-mediated T7-DLC1 expression. FIG. 14B: DLC1 deregulation potentiates stimulation of Bcl-2 by E2 and by Tam. […] FIG. 14C: DLC1 upregulation suppress Tam ability to inhibit E2-mediated ER transactivation. MCF-7/DLC1 cells were transfected with ERE-luc. […] FIG. 14D: DLC1 deregulation potentiated E2-mediated stimulation of ERE-luc activity in Ishikawa and MCF-7/TAMR1 cells. […] FIG. 14E: Recruitment of DLC1 and ERá to the pS2 promoter chromatin. MCF-7/DLC1 cells were treated with or without Dox for 24 and then with E2 (10^−9M) for 1 h. Chromatin lysates were immunoprecipitated with anti-ER-á or anti-T7 (to detect T7-DLC1) antibodies. Upper panels show the PCR analysis of 304 bp pS2 promoter fragment associated with ER or T7-DLC1.
To delineate the significance of the DLC1 in the modulation of ER transactivation, the effect of T7-DLC1 deregulation on the recruitment of ER to the ER-target pS2 gene promoter chromatin using a chromatin immunoprecipitation (ChIP) assay with anti-ERα or anti-T7 antibodies was examined. […] When the above ChIP studies were repeated using T7 antibody to isolate T7-DLC1, it was observed that both basal and ligand-activated DLC1 were also recruited to pS2 gene chromatin (FIG. 14E). […]

[3] = tested on: ZR75 cells; assay: Cell cycle progression by FACS analysis of serum-starved clones; conditions: serum-starved stable clones
Procedure: FIGS. 5A–5C—Requirement of DLC1/PIN and Pak1 interaction in cell proliferation and survival. FIG. 5A: Equal number of cells ZR75R stable cells expressing DLC1/PIN wild type or DLC1/PIN^del88-89 mutant were plated and cell proliferation was determined by trypsinizing and counting cells using a coulter counter. Each colne was plated in triplicate and experiment was repeated twice with similar results. FIG. 5B: Cell cycle progression of DLC1/PIN wild type or mutant clones was analyzed by FACS analysis. […] For example, a smooth nuclear membrane was scored as nonapoptotic, as opposed to membrane blebbing or rupture, which was scored as apoptotic. Nuclei committed to enter mitosis were not scored in either of these groups because they were easily identified for their specific “pulverized” pattern of Lamin A/C staining. Ten randomly selected fields were analyzed for each condition. […]
DLC1/PIN regulation of cell growth and survival. […] After 10 h, apoptosis was quantitated by scoring the integrity of the nuclear membrane in cells expressing both RFP and myc tags to detect DLC/DLC1/PIN and Pak1 respectively (FIG. 5D).

Row | Compound | DLC1-ER interaction ([1]; Ishikawa cells, Tam 24 h) | DLC1-ER interaction ([1]; MCF-7/DLC1 cells with doxycycline) | DLC1-ER interaction ([1]; MCF-7/TAM-Sen cells, Tam 24 h) | ER interaction with the pS2 gene chromatin [2] | cell cycle distribution [3] | interaction with ER ([1]; MCF-7 cells, tet-inducible T7-tagged mutant)
1 | CC/C(=C(\c1ccccc1)c1ccc(OCCN(C)C)cc1)c1ccccc1 [tamoxifen] | substantially enhanced | modestly, but reproducibly, increased | not | enhanced ER interaction |  | 
2 | DLC1/PIN^del 88-89: DLC1/PIN mutant in which Ser88 and amino acid 89 were deleted |  |  |  |  | significant increase in the cells in pre-Go phase | failed to detect any interaction
